Here are results for 2 molecules from patent publication US20260364078A1, “PURINE NUCLEOSIDE PHOSPHORYLASE INHIBITORS FOR THE TREATMENT OF METABOLIC SYNDROME AND ASSOCIATED CONDITIONS” (METASHAPE PHARMA AG, priority 2022, published 2026).

In one data set the test system is brown adipocytes. The following applies: via cAMP/protein kinase A signalling pathway; cited from earlier work.
The subject of another data set is Diet induced obese mice. The following applies: cited from earlier work.
Another data set has as its system lymphocytes. The data set is described as follows: Example 4: total lymphocytes by flow cytometry in DIO mouse model. The class given is in vivo, C57/BL6J mice. The following applies: 3 days a week, 4 weeks. On the procedure:
The aim of this study is to determine the effect of increasing doses of ulodesine hemi glutarate on lymphocytes in whole blood.
Method: C57/BL6J mice were fed obesogenic diet D12492 (60 kcal % fat) from age 6 weeks. Eighteen weeks old mice (approximately 40 g) were either treated with vehicle (control) or ulodesine hemi glutarate at 1, 2, 5, and 10 mg/kg for only 3 days a week (days 1, 2 and 3) given orally for 4 weeks. At the end of four weeks, flow cytometry was used to enumerate total lymphocytes.
On the technique in general: A flow cytometer gives signals particle by particle.

Data set [1] concerns Stearoyl CoA desaturase 1 (SCD-1). The data set is described as follows: Example 2: quantitative PCR of lipogenesis marker SCD-1. Conditions: 2 mg/kg p.o., 3 days a week, 28 days; vs vehicle. It is filed as in vivo, C57/BL6J mice. How it is done:
(§1) Method: C57/BL6J mice were fed obesogenic diet D12492 (60 kcal % fat) from age 6 weeks. Nineteen week old mice (approximately 50 g) were either treated with vehicle (control) or ulodesine hemi glutarate at 2 mg/kg for 3 days a week (days 1, 2 and 3), given orally, over a 28 day period. On day minus 2 and on day 28, animals were fasted for 6 hr (only food withdrawn) and blood was collected for both blood glucose and cholesterol. On day 28 plasma liver enzymes (AST and ALT) and insulin were determined and additional plasma and whole blood was frozen and used for inosine and NAD+ measurement. BAT and iWAT was collected at the end of the study, weighed and quantitative PCR was performed for the lipogenesis markers Stearoyl CoA desaturase 1 (SCD-1) and fatty acid synthetase (FAS) and the thermogenesis marker uncoupling protein 1 (UCP-1). Inosine and NAD+ levels in stored plasma and whole blood respectively were determined by LC/MS/MS.

For data set [2], the system named is uncoupling protein 1 (UCP-1). Briefly: Example 2: quantitative PCR of thermogenesis marker in BAT. The class given is in vivo, C57/BL6J mice. The following applies: 2 mg/kg p.o., 3 days a week, 28 days; vs vehicle. How it is done:
as §1

In data set [3] the test system is Diet Induced Obesity (DIO) mouse model. Briefly: Example 1: low and intermittent dosing in DIO mouse model. The following applies: 2 mg/kg p.o., 3 days a week, 28 days. The class given is in vivo, C57/BL6J mice. The source says:
The aim of the preliminary study is to determine the effect of low and intermittent dosing of ulodesine hemi glutarate on the following parameters: weight gain, food intake, fasting blood glucose concentration and serum cholesterol. The study assesses ulodesine hemi glutarate efficacy on the listed parameters in the DIO mouse model of obesity and metabolic dysfunction.
Method: C57/BL6J mice were fed obesogenic diet D12492 (60 kcal % fat) from age 6 weeks. Eighteen week old mice (approximately 40 g) were either treated with vehicle (control) or ulodesine hemi glutarate at 2 mg/kg for 3 days a week (days 1, 2 and 3) given orally, over a 28 day period. On day −2 and on day 28, animals were fasted for 6 hr by withdrawing food only, and blood was collected for both blood glucose and cholesterol measurements.

The next data set concerns DIO mouse model. The data set is described as follows: Example 2: low and intermittent dosing in DIO mouse model. The following applies: 2 mg/kg p.o., 3 days a week. The class given is in vivo, C57/BL6J mice.
From the text: The aim of this study is to determine the effect of a low and intermittent dosing regime of ulodesine hemi glutarate on the following parameters: weight gain, food intake, fasting blood glucose concentration, serum insulin, serum cholesterol, plasma liver enzymes aspartate aminotransferase (AST) and alanine transaminase (ALT), inguinal white adipose tissue (iWAT), BAT; inosine in plasma and NAD+ in whole blood, and expression of lipogenesis (fatty acid synthesis) markers in iWAT and thermogenic markers in BAT. The study will assess ulodesine hemi glutarate efficacy on the listed parameters in the DIO mouse model of obesity and metabolic dysfunction.
as §1

For data set [4], the system named is fatty acid synthetase (FAS). Briefly: Example 2: quantitative PCR of lipogenesis marker FAS. The class given is in vivo, C57/BL6J mice. Conditions: 2 mg/kg p.o., 3 days a week, 28 days; vs vehicle. How it is done: as §1

SMILES strings stand for the structures.

For the molecule `OC[C@H]1O[C@@H](n2cnc3c(O)ncnc32)[C@H](O)[C@@H]1O` [inosine], the “energy expenditure in brown adipocytes” value with brown adipocytes was “stimulates energy expenditure”. Also, the weight entry in the data set on Diet induced obese mice (diet induced obese mice, daily for 26 days, vs vehicle) is reported as “significant reduction in weight”. Moreover, in the data set with Diet induced obese mice (mice), the “BAT dependent energy expenditure” value is listed as “increased BAT dependent energy expenditure” and the “browning of white adipose tissue” value was “induced browning of white adipose tissue”.

As for `O=c1[nH]cnc2c(CN3C[C@H](CO)[C@@H](O)C3)c[nH]c12` [ulodesine hemi glutarate], the number of lymphocytes entry is “does not impact the number of lymphocytes” with lymphocytes (1 mg/kg p.o.); “does not impact the number of lymphocytes” with lymphocytes (2 mg/kg p.o.); “not significant at doses of 5 mg and 10 mg/kg, there appeared to be an observable decrease in lymphocytes” in the data set on lymphocytes (5 mg/kg p.o.); “not significant at doses of 5 mg and 10 mg/kg, there appeared to be an observable decrease in lymphocytes” with lymphocytes (10 mg/kg p.o.). The “expression of lipogenesis marker SCD-1 in WAT tissue” value in data set [1] is listed as “decrease”. Also, the “expression of thermogenic marker UCP-1 in BAT tissue” value in data set [2] was “increase in expression”. In addition, the “toxicity or adverse effects” value (in data set [3]; with DIO mouse model (28 days)) was “no signs of any toxicity or adverse effects” in each case. Also, in data set [3] (vs control), the fasting blood glucose result is recorded as “decrease in blood glucose”. Further, in data set [3] (vs control), the serum cholesterol entry was “decrease in blood glucose and serum cholesterol”. Moreover, the weight gain result in data set [3] (~40 g mice, vs control) is recorded as “significant decrease in weight gain”. Moreover, in the data set on DIO mouse model (28 days), the insulin sensitivity entry is listed as “improves insulin sensitivity”. The “decrease in weight gain” value in the data set with DIO mouse model (28 days, ~50 g mice, vs control) is “not significantly different from the control group”. Further, in the data set with DIO mouse model (day 28, LC/MS/MS), the “NAD+ in whole blood” value is “significantly elevated”. The inosine in plasma entry in the data set on DIO mouse model (day 28, LC/MS/MS) is recorded as “significantly elevated”. Further, the “expression of lipogenesis marker FAS in WAT tissue” value in data set [4] is “decrease”.
